Data: patent US4539322A, “Dihydropyridine derivatives and their use in treating heart conditions and hypertension” (Pfizer Inc., priority 1982, dated 1985)
pIC50: −log10 of the molar value. Structures can show the parent of a compound that is named as a salt.

Tested on: rat aorta
Test: Inhibition of calcium-induced contraction of isolated rat aorta strips (reduction of response to added calcium chloride in K+-containing saline)
Assay type: cell-based
Details: 0.75 h; spirally cut rat aorta strips, 45 millimolar potassium, calcium 2 millimolar, test repeated with compound after 45 minutes; read-out: molar concentration of the compounds required to reduce the response by 50% (IC50)
Protocol: The ability of the compounds to inhibit the movement of calcium into the cell is shown by their effectiveness in reducing the response of isolated heart tissue to an increase in calcium ion concentration in vitro. The test is performed by mounting spirally cut strips of rat aorta with one end fixed and the other attached to a force transducer. The tissue is immersed in a bath of physiological saline solution containing potassium ion s at a concentration of 45 millimolar and no calcium. Calcium chloride is added to the bath with a pipette to give a final calcium ion concentration of 2 millimolar. The change in tension caused by the resulting contraction of the tissue is noted. The bath is drained and replaced with fresh saline solution and, after 45 minutes, the test is repeated with the particular compound under test present in the saline solution. The concentration of compound required to reduce the response by 50% is recorded.

SMILES	pIC50
CCOC(=O)C1=C(COCCN2CCN(C(=O)c3ccco3)CC2)NC(C)=C(C(=O)OC)C1c1ccccc1Cl (centres unmarked) [Example 44]	7.07
CCOC(=O)C(=O)N1CCN(CCOCC2=C(C(=O)OCC)C(c3ccccc3Cl)C(C(=O)OC)=C(C)N2)CC1 (centres unmarked) [Example 45]	8.00
CCOC(=O)C1=C(COCCN2CCN(C(=O)COC)CC2)NC(C)=C(C(=O)OC)C1c1ccccc1Cl (centres unmarked) [Example 46]	8.20
CCOC(=O)C1=C(COCCN2CCN(C(=O)c3cccnc3)CC2)NC(C)=C(C(=O)OC)C1c1ccccc1Cl (centres unmarked) [Example 48]	7.88
CCOC(=O)C1=C(COCCN2CCN(C(=O)OCC)CC2)NC(C)=C(C(=O)OC)C1c1ccccc1Cl (centres unmarked) [Example 49]	8.00
CCOC(=O)C1=C(COCCN2CCN(C(=O)N3CCOCC3)CC2)NC(C)=C(C(=O)OC)C1c1ccccc1Cl (centres unmarked) [Example 50]	8.23
CCOC(=O)C1=C(COCCN2CCN(C=O)CC2)NC(C)=C(C(=O)OC)C1c1ccccc1Cl (centres unmarked) [Example 51, 4-(2-chlorophenyl)-3-ethoxycarbonyl-2-[2-(4-formylpiperazin-1-yl)ethoxymethyl]-5-methoxycarbonyl-6-methyl-1,4-dihydropyridine, bisoxalate salt]	8.10
CCOC(=O)C1=C(COCCN2CCN(C(=O)CC(C)=O)CC2)NC(C)=C(C(=O)OC)C1c1ccccc1Cl (centres unmarked) [Example 52, 2-[2-(4-acetoacetylpiperazin-1-yl)ethoxymethyl]-4-(2-chlorophenyl)-3-ethoxycarbonyl-5-methoxycarbonyl-6-methyl-1,4-dihydropyridine, hydrochloride hydrate]	8.01
CCOC(=O)C1=C(COCCN2CCN(S(N)(=O)=O)CC2)NC(C)=C(C(=O)OC)C1c1ccccc1Cl (centres unmarked) [Example 53, 4-(2-chlorophenyl)-3-ethoxycarbonyl-5-methoxycarbonyl-6-methyl-2-[2-(4-sulphamoylpiperazin-1-yl)ethoxymethyl]-1,4-dihydropyridine, hydrochloride hydrate]	7.38
CCOC(=O)C1=C(COCCN2CCN(C(=O)[C@@H]3CCC(=O)N3)CC2)NC(C)=C(C(=O)OC)C1c1ccccc1Cl (stereo partly drawn) [Example 54, 4-(2-chlorophenyl)-3-ethoxycarbonyl-5-methoxycarbonyl-6-methyl-2-[2-(4-[l-5-oxo-pyrrolidin-2-ylcarbonyl]-piperazin-1-yl)ethoxymethyl]-1,4-dihydropyridine, hydrochloride hydrate]	8.52
CCOC(=O)C1=C(COCCN2CCNCC2)NC(C)=C(C(=O)OC)C1c1ccccc1Cl (centres unmarked) [Example 55, 4-(2-chlorophenyl)-3-ethoxycarbonyl-5-methoxycarbonyl-6-methyl-2-[2-(piperazin-1-yl)ethoxymethyl]-1,4-dihydropyridine]	6.81
CCOC(=O)C1=C(COCC(C)(C)N2CCNCC2)NC(C)=C(C(=O)OC)C1c1ccccc1Cl (centres unmarked) [Example 56]	6.47
CCOC(=O)C1=C(COCC(C)N2CCNCC2)NC(C)=C(C(=O)OC)C1c1ccccc1Cl (centres unmarked) [Example 57]	6.65
CCOC(=O)C1=C(COCCN2CCN(C(=N)NC(=O)NC(C)C)CC2)NC(C)=C(C(=O)OC)C1c1ccccc1Cl (centres unmarked) [Example 64]	7.85
CCOC(=O)C1=C(COCCN2CCN(C(=N)NC(=O)OC)CC2)NC(C)=C(C(=O)OC)C1c1ccccc1Cl (centres unmarked) [Example 65]	8.09
CCOC(=O)C1=C(COCCN2CCN(C(=NC(C)=O)NC(C)=O)CC2)NC(C)=C(C(=O)OC)C1c1ccccc1Cl (centres unmarked) [Example 66]	7.38
CCOC(=O)C1=C(COCCN2CCN(C(=O)NC)CC2)NC(C)=C(C(=O)OC)C1c1cccc2ccccc12 (centres unmarked) [Example 70B, 3-Ethoxycarbonyl-5-methoxycarbonyl-6-methyl-2-{2-[4-(N-methylcarbamoyl)piperazin-1-yl]ethoxymethyl}4-(1-naphthyl)-1,4-dihydropyridine hydrate]	7.05
